Test results: the supplement of paper PMC10307832

Tests used:
Assay in all cases: relative viability (nuclei count vs DMSO), 5 days (fraction); higher = more cells survive
[1] = compound: NC1(c2ccc(-c3nc4ccn5c(=O)[nH]nc5c4cc3-c3ccccc3)cc2)CCC1 [MK-2206] + CCNC(=O)c1noc(-c2cc(C(C)C)c(O)cc2O)c1-c1ccc(CN2CCOCC2)cc1 [Luminespib] (partner 0.01 µM)
Method in brief: (§1)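 Each reported value is a median over duplicate plates. It expresses relative viability: treated-well nuclei count divided by vehicle-well nuclei count. Lung cancer cell lines in 1536-well plates were dosed by pin tool a day after seeding, alone with one drug or with a fixed anchor-drug dose plus five library-drug doses (not always all listed) in √10 steps, and nuclei were counted after 5 days.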

[2] = compound: CS(=O)(=O)N1CCN(Cc2cc3nc(-c4cccc5[nH]ncc45)nc(N4CCOCC4)c3s2)CC1 [Pictilisib] + Cc1cc(Nc2cc(N3CCN(C)CC3)nc(Sc3ccc(NC(=O)C4CC4)cc3)n2)n[nH]1 [Tozasertib] (partner 0.1 µM)
Method in brief: as §1

[3] = compound: NC1(c2ccc(-c3nc4ccn5c(=O)[nH]nc5c4cc3-c3ccccc3)cc2)CCC1 [MK-2206] + Cc1nc(Nc2ncc(C(=O)Nc3c(C)cccc3Cl)s2)cc(N2CCN(CCO)CC2)n1 [Dasatinib] (partner 0.075 µM)
Method in brief: as §1

[4] = compound: NC1(c2ccc(-c3nc4ccn5c(=O)[nH]nc5c4cc3-c3ccccc3)cc2)CCC1 [MK-2206] + Cc1nc(NC(=O)N2CCC[C@H]2C(N)=O)sc1-c1ccnc(C(C)(C)C(F)(F)F)c1 [Alpelisib] (partner 2 µM)
Method in brief: as §1

[5] = compound: CS(=O)(=O)N1CCN(Cc2cc3nc(-c4cccc5[nH]ncc45)nc(N4CCOCC4)c3s2)CC1 [Pictilisib] + O=C(c1cc(Cc2n[nH]c(=O)c3ccccc23)ccc1F)N1CCN(C(=O)C2CC2)CC1 [Olaparib] (partner 8 µM)
Method in brief: as §1

| Cell Line | relative viability ([1]; first compound 0.01 µM) | relative viability ([1]; first compound 0.03162 µM) | relative viability ([1]; first compound 0.3162 µM) | relative viability ([1]; first compound 1 µM) | relative viability ([2]; first compound 0.02 µM) | relative viability ([2]; first compound 0.06325 µM) | relative viability ([2]; first compound 0.6325 µM) | relative viability ([2]; first compound 2 µM) | relative viability ([3]; first compound 0.01 µM) | relative viability ([3]; first compound 0.03162 µM) | relative viability ([3]; first compound 0.3162 µM) | relative viability ([3]; first compound 1 µM) | relative viability ([4]; first compound 0.01 µM) | relative viability ([4]; first compound 0.03162 µM) | relative viability ([4]; first compound 0.3162 µM) | relative viability ([4]; first compound 1 µM) | relative viability ([5]; first compound 0.02 µM) | relative viability ([5]; first compound 0.06325 µM) | relative viability ([5]; first compound 0.6325 µM) | relative viability ([5]; first compound 2 µM) |
| --- | --- | --- | --- | --- | --- | --- | --- | --- | --- | --- | --- | --- | --- | --- | --- | --- | --- | --- | --- | --- |
| HOP-62 | 0.91 | 0.899 | 0.919 | 0.854 | 0.319 | 0.415 | 0.369 | 0.304 | 0.592 | 0.73 | 0.624 | 0.665 | 1.14 | 0.925 | 1.03 | 0.914 | 0.389 | 0.556 | 0.512 | 0.446 |
| LC-2-ad | 1.01 | 1.01 | 1.24 | 1.08 | 0.482 | 0.516 | 0.345 | 0.264 | 0.581 | 0.579 | 0.505 | 0.2 | 0.888 | 0.847 | 0.802 | 0.793 | 0.745 | 0.758 | 0.788 | 0.656 |
| SW 900 | 0.167 | 0.197 | 0.175 | 0.17 | 0.651 | 0.63 | 0.562 | 0.334 | 0.573 | 0.636 | 0.531 | 0.476 |  |  |  |  | 0.793 | 0.818 | 0.713 | 0.471 |
| NCI-H322M | 0.91 | 0.95 | 0.825 | 0.882 | 0.494 | 0.49 | 0.4 | 0.282 | 0.258 | 0.268 | 0.288 | 0.284 | 0.864 | 0.79 | 0.732 | 0.701 | 0.76 | 0.838 | 0.756 | 0.525 |
| SK-LU-1 | 0.217 | 0.209 | 0.211 | 0.195 | 0.362 | 0.304 | 0.3 | 0.233 | 0.196 | 0.19 | 0.198 | 0.151 | 1.13 | 0.979 | 0.993 | 0.876 | 0.451 | 0.492 | 0.409 | 0.367 |
| NCI-H1734 | 0.194 | 0.168 | 0.193 | 0.148 | 0.254 | 0.275 | 0.226 | 0.193 | 0.501 | 0.449 | 0.408 | 0.387 | 0.709 | 0.625 | 0.451 | 0.521 | 0.582 | 0.581 | 0.477 | 0.215 |
| HCC-44 | 1.05 | 1.2 | 1.21 | 1.09 | 0.952 | 0.922 | 0.629 | 0.279 |  |  |  |  | 0.784 | 0.767 | 0.633 | 0.59 | 1.02 | 1.06 | 1.12 | 0.915 |
| NCI-H1703 |  |  |  |  |  |  |  |  |  |  |  |  | 0.355 | 0.366 | 0.317 | 0.416 | 0.471 | 0.378 | 0.214 | 0.122 |
| NCI-H2170 | 0.697 | 0.822 | 0.616 | 0.557 | 0.875 | 0.823 | 0.61 | 0.391 | 0.611 | 0.504 | 0.625 | 0.559 | 0.82 | 0.835 | 0.755 | 0.776 | 0.608 | 0.508 | 0.562 | 0.33 |
| NCI-H1395 | 0.77 | 0.606 | 0.746 | 0.651 | 0.715 | 0.722 | 0.773 | 0.473 | 0.435 | 0.399 | 0.413 | 0.362 | 1.1 | 1.13 | 0.926 | 0.825 | 0.514 | 0.439 | 0.367 | 0.367 |
| NCI-H1355 | 0.799 | 0.689 | 0.752 | 0.696 | 0.582 | 0.474 | 0.484 | 0.183 | 0.734 | 0.7 | 0.701 | 0.432 | 0.886 | 0.813 | 0.789 | 0.783 | 0.718 | 0.727 | 0.651 | 0.413 |
| NCI-H1650 | 0.185 | 0.182 | 0.215 | 0.183 | 0.467 | 0.401 | 0.348 | 0.18 | 0.312 | 0.273 | 0.215 | 0.244 |  |  |  |  | 0.593 | 0.759 | 0.761 | 0.691 |
| IA-LM |  |  |  |  |  |  |  |  |  |  |  |  | 0.809 | 0.869 | 0.578 | 0.544 | 0.952 | 0.987 | 0.792 | 0.516 |
| NCI-H1666 | 0.961 | 1.02 | 1.13 | 1.01 | 0.628 | 0.599 | 0.627 | 0.483 | 0.751 | 0.838 | 0.818 | 0.744 | 0.957 | 0.89 | 0.729 | 0.735 | 0.751 | 0.762 | 0.813 | 0.756 |
| HCC-78 |  |  |  |  | 0.427 | 0.46 | 0.309 | 0.281 | 0.511 |  | 0.373 | 0.227 | 0.372 | 0.336 | 0.256 | 0.21 | 0.727 | 0.548 | 0.529 | 0.351 |
| H3255 | 0.872 | 1.12 | 0.754 | 0.835 | 0.601 | 0.474 | 0.648 | 0.486 | 0.347 | 0.344 | 0.288 | 0.284 | 0.694 | 0.748 | 0.53 | 0.6 | 0.585 | 0.599 | 0.472 | 0.412 |
| NCI-H23 | 0.214 | 0.215 | 0.19 | 0.211 | 0.326 | 0.413 | 0.294 | 0.35 | 0.808 | 0.845 | 0.787 | 0.423 | 0.705 | 0.805 | 0.784 | 0.779 | 0.298 | 0.389 | 0.355 | 0.198 |
